Data as given in patent US20180343865A1, “HERBICIDAL COMPOSITIONS COMPRISING ISOXAZOLO[5,4-B]PYRIDINES” (BASF SE, priority 2015, published 2018).
“And” between values parts separate entries of the source, which are not always exact repeats. Equal entries are not always repeated. Where two headings read alike, the source gives them in different places.

Tests used:
Type in all cases: in vivo
[1] = system: Setaria viridis; assay: Greenhouse postemergence herbicidal activity on SETVI, 20 DAT; details: post-emergence, 62.5 gai/ha, Table 8, read-out: % activity, solo application (I.A)
Procedure: (§1) For the post emergence treatment, the plants were first grown to the 2 leaf station (GS 12) and applied at GS 12-19 depending on the species. The herbicidal compositions were suspended or emulsified in water as distribution medium and sprayed using finely distributing nozzles.
(§2) The plants have been cultivated due to their individual requirements at 10 to 25° C. and. 20 to 35° C. The plants were irrigated due to their necessity.
The respective stated components A), were formulated as a 5% by weight strength emulsion concentrate containing wettol EM 31 20% and Cyclohexanone 80%. The respective stated components B), were formulated as either emulsifiable concentrates (EC), soluble liquids (SL), suspension concentrates (SC) or soluble granules (SG) as indicated in the table below. […]
In the following experiments, the herbicidal activity for the individual herbicide compounds (solo and mixture applications), the herbicidal succession was assessed 20 days after treatment (DAT). […]
The value E, which corresponds to the effect (in %) that is to be expected if the activity of the individual compounds is additive, was calculated using the method of S. R. Colby (1967) “Calculating synergistic and antagonistic responses of herbicide combinations”, Weeds 15, p. […]
(§3) If the value observed in this manner is higher than the value E calculated according to Colby, a synergistic effect is present.

[2] = system: Amaranthus retroflexus; assay: Greenhouse postemergence herbicidal activity on AMARE, 20 DAT; details: AMARE, postemergence; for inhibition at 62.5 g/ha: 62.5 gai/ha
Procedure: as §1, §2
(§4) The respective stated components A), were formulated as a 5% by weight strength emulsion concentrate containing wettol EM 31 20% and Cyclohexanone 80%. The respective stated components B), were formulated as either emulsifiable concentrates (EC), soluble liquids (SL), suspension concentrates (SC) or soluble granules (SG) as indicated in the table below. Component A, component B and the solvent system are introduced into the spray liquor used for applying the active compound. In the examples, the solvent used was water containing 1% Dash (Agnique ME 181 37.5%, Lutensit A-EP 22.5%, and Oleic Acid 5%) and 2% ammonium suflate.
(§5) In the following experiments, the herbicidal activity for the individual herbicide compounds (solo and mixture applications), the herbicidal succession was assessed 20 days after treatment (DAT). The evaluation for the damage on undesired weeds caused by the chemical compositions was carried out using a scale from 0 to 100%, compared to the untreated control plants. Here, 0 means no damage and 100 means complete destruction of the plants. The plants used in the greenhouse experiments belonged to the following species:
(§6) The value E, which corresponds to the effect (in %) that is to be expected if the activity of the individual compounds is additive, was calculated using the method of S. R. Colby (1967) “Calculating synergistic and antagonistic responses of herbicide combinations”, Weeds 15, p. 22 ff. Colby calculation for 2 way mixtures:
(§7) where: • X=effect in percent using herbicide A at an application rate a; • Y=effect in percent using herbicide B at an application rate b; • E=expected effect (in %) of A+B at application rates a+b
as §3

[3] = system: Ipomoea hederacea; assay: Greenhouse postemergence herbicidal activity on IPOHE, 20 DAT; details: for inhibition at 125 g/ha: 125 gai/ha
Procedure: as §1, §2, §4, §5, §6, §7, §3

[4] = system: Polygonum aviculare; assay: Greenhouse postemergence herbicidal activity on POLAV, 20 DAT; details: Polygonum aviculare, post-emergence, 480 h, read-out: % activity, solo (I.A)
Procedure: as §1, §2, §4, §5, §6, §7, §3

[5] = system: Polygonum persicaria; assay: Greenhouse postemergence herbicidal activity on POLPE, 20 DAT; details: Persicaria maculosa, post-emergence, 480 h, POLPE, postemergence, 20 DAT, read-out: % activity, solo (I.A)
Procedure: as §1, §2, §4, §5, §6, §7, §3

[6] = system: Stellaria media; assay: Greenhouse postemergence herbicidal activity on STEME, 20 DAT; details: STEME, postemergence
Procedure: as §1, §2, §4, §5, §6, §7, §3

[7] = system: Galium aparine; assay: Greenhouse postemergence herbicidal activity on GALAP, 20 DAT; details: Galium aparine, post-emergence; for inhibition at 31.25 g/ha: 31.25 gai/ha; for inhibition at 62.5 g/ha: 62.5 gai/ha; for inhibition at 125 g/ha: 125 gai/ha; for inhibition at 250 g/ha: 250 gai/ha
Procedure: as §1, §2, §4, §5, §6, §7, §3

[8] = system: ALOMY; assay: Greenhouse postemergence herbicidal activity on ALOMY, 20 DAT; details: Alopecurus myosuroides, post-emergence, Table 8, read-out: % activity, solo application (I.A)
[9] = Table 6, read-out: % activity, solo application (I.A)
[10] = 480 h, 20 DAT, read-out: % activity, solo (I.A)

SMILES: CC(C)c1noc2nc(C3CC3)cc(C(=O)O)c12 [(I.A)]
- inhibition at 62.5 g/ha [1]: 30%
- % activity, solo (I.A) ([2]; 31.25 gai/ha, 20 DAT): 58% and 78% and 80%
- inhibition at 62.5 g/ha ([2]; Amaranthus retroflexus, post-emergence, 480 h, 20 DAT, read-out: % activity, solo (I.A)): 94%
- inhibition at 125 g/ha ([2]; Amaranthus retroflexus, post-emergence, 480 h, 125 gai/ha, 20 DAT, read-out: % activity, solo (I.A)): 93%
- inhibition at 7.8 g/ha ([2]; Amaranthus retroflexus, post-emergence, 7.8 gai/ha, Table 8, read-out: % activity, solo application (I.A)): 0%
- inhibition at 15.6 g/ha ([2]; Amaranthus retroflexus, post-emergence, 15.6 gai/ha, Table 8, read-out: % activity, solo application (I.A)): 15%
- inhibition at 31.25 g/ha ([2]; Amaranthus retroflexus, post-emergence, 31.25 gai/ha, Table 6, read-out: % activity, solo application (I.A)): 65%
- inhibition at 62.5 g/ha ([2]; Amaranthus retroflexus, post-emergence, Table 8, read-out: % activity, solo application (I.A)): 85%
- % activity, solo (I.A) ([3]; 31.25 gai/ha, 20 DAT): 95%
- % activity, solo (I.A) ([3]; 62.5 gai/ha, 20 DAT): 95%
- inhibition at 31.25 g/ha ([3]; Ipomoea hederacea, post-emergence, 31.25 gai/ha, Table 6, read-out: % activity, solo application (I.A)): 75%
- inhibition at 31.25 g/ha ([3]; Ipomoea hederacea, post-emergence, 31.25 gai/ha, Table 8, read-out: % activity, solo application (I.A)): 50%
- inhibition at 62.5 g/ha ([3]; Ipomoea hederacea, post-emergence, 62.5 gai/ha, Table 6, read-out: % activity, solo application (I.A)): 87%
- inhibition at 125 g/ha ([3]; Ipomoea hederacea, post-emergence, Table 6, read-out: % activity, solo application (I.A)): 98%
- inhibition at 128 g/ha ([3]; Ipomoea hederacea, post-emergence, 128 gai/ha, Table 6, read-out: % activity, solo application (I.A)): 98%
- inhibition at 250 g/ha ([3]; Ipomoea hederacea, post-emergence, 250 gai/ha, Table 6, read-out: % activity, solo application (I.A)): 99%
- inhibition at 15.6 g/ha ([3]; Ipomoea hederacea, post-emergence, 480 h, 15.6 gai/ha, 20 DAT, read-out: % activity, solo (I.A)): 65%
- inhibition at 31.25 g/ha ([3]; Ipomoea hederacea, post-emergence, 480 h, 31.25 gai/ha, 20 DAT, read-out: % activity, solo (I.A)): 75%
- inhibition at 62.5 g/ha ([3]; Ipomoea hederacea, post-emergence, 480 h, 62.5 gai/ha, 20 DAT, read-out: % activity, solo (I.A)): 87%
- inhibition at 125 g/ha ([3]; Ipomoea hederacea, post-emergence, 480 h, 20 DAT, read-out: % activity, solo (I.A)): 98%
- inhibition at 15.6 g/ha ([4]; 15.6 gai/ha): 10%
- inhibition at 31.25 g/ha ([4]; 31.25 gai/ha): 35%
- inhibition at 62.5 g/ha ([4]; 62.5 gai/ha): 50%
- inhibition at 125 g/ha ([4]; 125 gai/ha): 90%
- inhibition at 15.6 g/ha ([5]; 15.6 gai/ha): 70%
- inhibition at 31.25 g/ha ([5]; 31.25 gai/ha): 80%
- % activity, solo (I.A) ([6]; 31.25 gai/ha, 20 DAT): 35%
- % activity, solo (I.A) ([6]; 62.5 gai/ha, 20 DAT): 70% and 95%
- inhibition at 31.25 g/ha ([6]; Stellaria media, post-emergence, 480 h, 31.25 gai/ha, 20 DAT, read-out: % activity, solo (I.A)): 20%
- inhibition at 15.6 g/ha ([6]; Stellaria media, post-emergence, 15.6 gai/ha, Table 8, read-out: % activity, solo application (I.A)): 0%
- inhibition at 31.25 g/ha ([6]; Stellaria media, post-emergence, 31.25 gai/ha, Table 8, read-out: % activity, solo application (I.A)): 0%
- inhibition at 62.5 g/ha ([6]; Stellaria media, post-emergence, 62.5 gai/ha, Table 8, read-out: % activity, solo application (I.A)): 0%
- inhibition at 31.25 g/ha [7, 9]: 43%
- inhibition at 62.5 g/ha [7, 9]: 60%
- inhibition at 62.5 g/ha ([7]; Table 8, read-out: % activity, solo application (I.A)): 45%
- inhibition at 125 g/ha [7, 9]: 73%
- inhibition at 250 g/ha [7, 9]: 95%
- inhibition at 31.25 g/ha [7, 10]: 43%
- inhibition at 62.5 g/ha [7, 10]: 60%
- inhibition at 125 g/ha [7, 10]: 73%
- inhibition at 250 g/ha [7, 10]: 95%
- inhibition at 15.6 g/ha ([8]; 15.6 gai/ha): 0%
- inhibition at 31.25 g/ha ([8]; 31.25 gai/ha): 0%
- inhibition at 62.5 g/ha ([8]; 62.5 gai/ha): 20%
